Test results from patent publication US20260356819A1, “OXOISOINDOLINYL-SUBSTITUTED […] DERIVATIVE AND USE THEREOF” (GLUETACS THERAPEUTICS (SHANGHAI) CO., LTD., priority 2023, published 2026).

Assays:
Type in all cases: cell-based
Settings in all cases: compounds at 50 nM and 500 nM
[1] = molecular target: T1, IKZF1 (Homo sapiens, UniProt Q13422+Q96SW2); assay: Western blot degradation of IKZF1 in hPBMCs (24 h)
T1 construct: The supernatant was aspirated as the extracted total cell protein; endogenous in cells; host or cells: human peripheral blood mononuclear cells (hPBMCs)
Protocol: (§1) Conventional Western blot assay was performed to evaluate the effects of the compounds of the present disclosure on the expression of target proteins in cells. • (1) Cell Seeding and Protein Harvesting: Human peripheral blood mononuclear cells (hPBMCs) at a density of 1×10^6 cells/mL were thawed according to the PBMC Recovery Protocol (Milecell Biotechnologies Inc, Shanghai). The cells were then treated with the compounds of the present disclosure (including the compounds listed in Table 1, and the Examples 1-498 compounds) at concentrations of 50 nM and 500 nM. Controls included a negative control (DMSO) and a positive control (the commercial immunomodulatory drug lenalidomide), both processed following the identical experimental protocol as the compounds of the present disclosure. After 24 hours of compounds treatment, cells were harvested and lysed in RIPA protein lysate containing protease inhibitors on ice for 30 min, followed by centrifugation. The supernatant was aspirated as the extracted total cell protein. The protein concentration of the supernatant was determined using the conventional BCA (Bicinchoninic Acid) assay. • (2) To the collected supernatant, 5×SDS sample loading buffer was added, followed by denaturation at 95 °C for 5 minutes. The denatured samples were then separated by SDS-PAGE electrophoresis on a polyacrylamide gel. Proteins were transferred to a nitrocellulose membrane (0.45 μm NC membrane), blocked with blocking buffer at room temperature for 1 hour, and subjected to antibody incubation and development procedures according to the antibody manufacturer's instructions (Cell Signaling Technology).
(§2) Half-Maximal Degradation Concentration value (the drug concentration required for degrading proteins by 50%, abbreviated as DC50) reads method: comparing the grayscale values of Western blot bands from drug-treated samples with those from blank DMSO-treated controls, and identifying the drug concentration range at which the grayscale value is half that of the DMSO-treated control bands.
(§3) DC50 values can be calculated using ImageJ software to measure grayscale values of Western blot bands from drug-treated samples. The concentration-response curve is fitted to estimate the drug concentration corresponding to half the grayscale value.
(§4) Target protein remaining (%) refers to the percentage of target protein remaining in cells after treatment with protein degrader compounds.
(§5) Calculation method for target protein remaining (%): Use ImageJ software to measure grayscale values of Western blot bands from drug (protein degrader)-treated samples. The grayscale value of drug-treated bands is divided by that of internal control protein bands, and the resulting quotient is normalized to obtain the relative percentage of remaining target protein after protein degrader treatment.
(§6) Target protein degradation rate (%)=1−target protein remaining (%).

[2] = molecular target: T2, CK1α (Homo sapiens, UniProt P48729+Q96SW2); assay: Western blot degradation of CK1α in hPBMCs (24 h)
T2 construct: The supernatant was aspirated as the extracted total cell protein; endogenous in cells; host or cells: human peripheral blood mononuclear cells (hPBMCs)
Protocol: as §1, §2, §3, §4, §5, §6

[3] = molecular target: T3, IKZF2 (Homo sapiens, UniProt Q96SW2+Q9UKS7); assay: Western blot degradation of IKZF2 in hPBMCs (24 h)
T3 construct: The supernatant was aspirated as the extracted total cell protein; endogenous in cells; host or cells: human peripheral blood mononuclear cells (hPBMCs)
Protocol: as §1, §2, §3, §4, §5, §6

[4] = molecular target: T4, IKZF3 (Homo sapiens, UniProt Q96SW2+Q9UKT9); assay: Western blot degradation of IKZF3 in hPBMCs (24 h)
T4 construct: The supernatant was aspirated as the extracted total cell protein; endogenous in cells; host or cells: human peripheral blood mononuclear cells (hPBMCs)
Protocol: as §1, §2, §3, §4, §5, §6

[5] = molecular target: T5, GSPT1 (Homo sapiens, UniProt P15170+Q96SW2); assay: Western blot degradation of GSPT1 in hPBMCs (24 h)
T5 construct: The supernatant was aspirated as the extracted total cell protein; endogenous in cells; host or cells: human peripheral blood mononuclear cells (hPBMCs)
Protocol: as §1, §2, §3, §4, §5, §6

[6] = molecular target: T6, WEE1 (Homo sapiens, UniProt P30291+Q96SW2); assay: Western blot degradation of WEE1 in hPBMCs (24 h)
T6 construct: The supernatant was aspirated as the extracted total cell protein; endogenous in cells; host or cells: human peripheral blood mononuclear cells (hPBMCs)
Protocol: as §1, §2, §3, §4, §5, §6

T4 sequence (Q9UKT9 whole entry): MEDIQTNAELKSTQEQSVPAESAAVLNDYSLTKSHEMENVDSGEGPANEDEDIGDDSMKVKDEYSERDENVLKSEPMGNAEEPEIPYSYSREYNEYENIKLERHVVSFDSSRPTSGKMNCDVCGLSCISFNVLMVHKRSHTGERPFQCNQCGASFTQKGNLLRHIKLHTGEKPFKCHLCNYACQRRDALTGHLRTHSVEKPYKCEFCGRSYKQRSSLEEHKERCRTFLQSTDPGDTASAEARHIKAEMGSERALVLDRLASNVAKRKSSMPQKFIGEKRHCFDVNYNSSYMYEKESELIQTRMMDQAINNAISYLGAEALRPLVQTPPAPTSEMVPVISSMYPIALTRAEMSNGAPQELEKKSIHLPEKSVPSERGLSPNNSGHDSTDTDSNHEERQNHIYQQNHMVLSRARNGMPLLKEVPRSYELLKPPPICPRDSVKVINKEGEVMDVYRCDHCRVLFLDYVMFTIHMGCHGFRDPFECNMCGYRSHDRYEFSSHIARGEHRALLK
T4 sequence (Q96SW2 whole entry): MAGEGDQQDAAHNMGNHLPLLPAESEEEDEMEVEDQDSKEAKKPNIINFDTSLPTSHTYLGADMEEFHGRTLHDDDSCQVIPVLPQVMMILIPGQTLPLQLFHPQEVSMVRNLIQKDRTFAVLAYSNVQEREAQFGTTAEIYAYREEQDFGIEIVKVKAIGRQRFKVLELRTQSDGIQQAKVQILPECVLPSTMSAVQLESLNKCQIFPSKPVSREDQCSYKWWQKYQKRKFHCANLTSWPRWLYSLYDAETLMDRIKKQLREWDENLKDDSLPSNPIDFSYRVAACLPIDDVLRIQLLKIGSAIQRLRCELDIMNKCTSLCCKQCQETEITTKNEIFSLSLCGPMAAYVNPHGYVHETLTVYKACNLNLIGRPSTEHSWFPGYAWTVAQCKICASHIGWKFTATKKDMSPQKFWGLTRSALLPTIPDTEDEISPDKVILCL
T4 sequence (Q16531 whole entry partner): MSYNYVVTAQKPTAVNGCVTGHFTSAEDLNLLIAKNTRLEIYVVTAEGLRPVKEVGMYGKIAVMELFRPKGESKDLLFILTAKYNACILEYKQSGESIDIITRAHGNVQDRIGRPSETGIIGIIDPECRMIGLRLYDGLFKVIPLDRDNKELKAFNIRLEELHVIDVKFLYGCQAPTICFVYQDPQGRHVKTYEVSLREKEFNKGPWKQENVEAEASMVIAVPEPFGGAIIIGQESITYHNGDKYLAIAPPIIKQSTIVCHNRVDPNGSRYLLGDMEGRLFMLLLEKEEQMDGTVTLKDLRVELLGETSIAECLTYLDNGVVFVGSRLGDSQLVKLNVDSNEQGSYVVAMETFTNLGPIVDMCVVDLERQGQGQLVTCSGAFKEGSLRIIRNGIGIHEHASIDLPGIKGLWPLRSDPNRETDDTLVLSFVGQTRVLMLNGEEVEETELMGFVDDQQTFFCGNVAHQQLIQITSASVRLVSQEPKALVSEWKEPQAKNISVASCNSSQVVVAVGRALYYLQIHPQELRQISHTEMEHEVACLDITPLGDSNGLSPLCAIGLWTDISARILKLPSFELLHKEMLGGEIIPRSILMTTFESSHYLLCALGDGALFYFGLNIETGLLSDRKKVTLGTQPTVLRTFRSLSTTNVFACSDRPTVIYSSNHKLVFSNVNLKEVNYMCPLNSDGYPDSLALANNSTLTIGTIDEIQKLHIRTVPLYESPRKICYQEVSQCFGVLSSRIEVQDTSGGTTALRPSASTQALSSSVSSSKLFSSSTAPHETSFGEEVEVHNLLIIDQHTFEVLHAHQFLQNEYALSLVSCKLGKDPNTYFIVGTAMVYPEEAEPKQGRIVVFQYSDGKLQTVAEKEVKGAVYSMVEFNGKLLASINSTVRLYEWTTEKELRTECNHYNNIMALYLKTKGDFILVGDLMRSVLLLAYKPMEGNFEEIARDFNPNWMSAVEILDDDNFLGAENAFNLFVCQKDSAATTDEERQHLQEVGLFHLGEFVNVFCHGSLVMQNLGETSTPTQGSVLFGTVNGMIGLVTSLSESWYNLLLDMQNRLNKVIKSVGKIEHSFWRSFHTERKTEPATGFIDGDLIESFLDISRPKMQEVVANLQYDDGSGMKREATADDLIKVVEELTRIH
T5 sequence (P15170 whole entry): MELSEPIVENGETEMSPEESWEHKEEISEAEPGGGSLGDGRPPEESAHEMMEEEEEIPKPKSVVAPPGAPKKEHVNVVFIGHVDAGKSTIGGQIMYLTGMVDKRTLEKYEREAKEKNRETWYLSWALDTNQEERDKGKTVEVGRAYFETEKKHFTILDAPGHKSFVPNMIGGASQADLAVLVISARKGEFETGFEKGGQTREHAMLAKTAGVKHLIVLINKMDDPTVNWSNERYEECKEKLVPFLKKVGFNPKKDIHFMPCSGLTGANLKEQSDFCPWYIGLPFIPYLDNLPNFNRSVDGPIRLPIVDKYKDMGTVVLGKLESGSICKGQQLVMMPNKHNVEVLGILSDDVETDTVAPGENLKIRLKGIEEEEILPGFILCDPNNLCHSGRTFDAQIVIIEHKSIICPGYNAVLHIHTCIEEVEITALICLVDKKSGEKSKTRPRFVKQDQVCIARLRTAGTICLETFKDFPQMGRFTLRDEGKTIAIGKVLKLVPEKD
T5 sequence (Q96SW2 whole entry): as the sequence (Q96SW2 whole entry) above
T5 sequence (Q16531 whole entry partner): as the sequence (Q16531 whole entry partner) above
T1 sequence (Q13422 whole entry): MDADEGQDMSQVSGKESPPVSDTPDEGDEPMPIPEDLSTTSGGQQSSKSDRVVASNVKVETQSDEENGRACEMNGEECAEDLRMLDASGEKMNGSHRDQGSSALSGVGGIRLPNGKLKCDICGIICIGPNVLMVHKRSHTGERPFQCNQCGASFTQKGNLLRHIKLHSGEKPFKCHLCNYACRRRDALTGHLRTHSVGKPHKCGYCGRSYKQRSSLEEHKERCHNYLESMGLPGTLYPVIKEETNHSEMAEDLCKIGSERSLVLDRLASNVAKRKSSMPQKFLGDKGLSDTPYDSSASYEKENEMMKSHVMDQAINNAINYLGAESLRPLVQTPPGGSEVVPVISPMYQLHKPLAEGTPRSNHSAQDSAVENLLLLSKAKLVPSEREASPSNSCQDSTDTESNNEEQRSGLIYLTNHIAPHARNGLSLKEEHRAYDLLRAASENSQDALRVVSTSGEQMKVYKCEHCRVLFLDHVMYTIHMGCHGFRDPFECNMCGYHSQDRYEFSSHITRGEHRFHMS
T1 sequence (Q96SW2 whole entry): as the sequence (Q96SW2 whole entry) above
T1 sequence (Q16531 whole entry partner): as the sequence (Q16531 whole entry partner) above
T2 sequence (P48729 whole entry): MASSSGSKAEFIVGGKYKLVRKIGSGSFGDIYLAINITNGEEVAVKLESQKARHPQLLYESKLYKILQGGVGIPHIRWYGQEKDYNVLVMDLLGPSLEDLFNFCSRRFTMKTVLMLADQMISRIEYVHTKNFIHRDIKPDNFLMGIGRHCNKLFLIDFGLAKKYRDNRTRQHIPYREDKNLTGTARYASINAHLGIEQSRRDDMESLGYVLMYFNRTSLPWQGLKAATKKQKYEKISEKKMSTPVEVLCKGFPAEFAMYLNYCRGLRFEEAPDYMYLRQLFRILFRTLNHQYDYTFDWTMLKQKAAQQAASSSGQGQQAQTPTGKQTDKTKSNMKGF
T2 sequence (Q96SW2 whole entry): as the sequence (Q96SW2 whole entry) above
T2 sequence (Q16531 whole entry partner): as the sequence (Q16531 whole entry partner) above
T6 sequence (P30291 whole entry): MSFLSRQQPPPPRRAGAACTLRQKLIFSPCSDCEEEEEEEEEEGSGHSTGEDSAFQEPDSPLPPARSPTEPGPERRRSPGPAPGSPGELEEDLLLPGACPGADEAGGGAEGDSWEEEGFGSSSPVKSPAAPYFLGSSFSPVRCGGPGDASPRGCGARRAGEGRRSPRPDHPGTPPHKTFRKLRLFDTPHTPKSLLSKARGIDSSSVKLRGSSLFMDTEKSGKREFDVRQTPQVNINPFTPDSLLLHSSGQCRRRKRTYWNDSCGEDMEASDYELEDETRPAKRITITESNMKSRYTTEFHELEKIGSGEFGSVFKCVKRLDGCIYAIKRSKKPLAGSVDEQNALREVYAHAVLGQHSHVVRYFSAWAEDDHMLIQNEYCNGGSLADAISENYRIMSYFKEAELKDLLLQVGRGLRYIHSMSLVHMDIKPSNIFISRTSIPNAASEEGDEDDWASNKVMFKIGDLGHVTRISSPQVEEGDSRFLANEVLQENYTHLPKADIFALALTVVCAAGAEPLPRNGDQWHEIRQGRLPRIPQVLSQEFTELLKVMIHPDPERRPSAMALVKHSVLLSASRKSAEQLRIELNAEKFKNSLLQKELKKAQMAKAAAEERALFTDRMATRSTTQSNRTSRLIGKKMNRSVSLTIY
T6 sequence (Q96SW2 whole entry): as the sequence (Q96SW2 whole entry) above
T6 sequence (Q16531 whole entry partner): as the sequence (Q16531 whole entry partner) above

Row | SMILES | IKZF1 substrate protein remaining % [1] | CK1α substrate protein remaining % [2] | IKZF2 substrate protein remaining % [3] | IKZF3 substrate protein remaining % [4] | GSPT1 substrate protein remaining % [5] | WEE1 substrate protein remaining % [6]
1 | O=C1CCN(N2Cc3cc(CN4CCN(c5nsc6cc(F)ccc56)CC4)ccc3C2=O)C(=O)N1 [GT-07500, 1-(5-((4-(6-fluorobenzo[d]isothiazol-3-yl)piperazin-1-yl)methyl)-1-oxoisoindolin-2-yl)dihydropyrimidine-2,4(1H,3H)-dione] | A (0% ≤ substrate protein remaining % ≤80%) | A (0% ≤ substrate protein remaining % ≤80%) | B (80%< substrate protein remaining % ≤100%) | B (80%< substrate protein remaining % ≤100%) | A (0% ≤ substrate protein remaining % ≤80%) | A (0% ≤ substrate protein remaining % ≤80%)
2 | O=C1CCN(N2C(=O)c3ccc(CN4CCC(c5ncc6ccsc6n5)CC4)cc3C2=O)C(=O)N1 [GT-08427, 2-(2,4-dioxotetrahydropyrimidin-1(2H)-yl)-5-((4-(thieno[2,3-d]pyrimidin-2-yl)piperidin-1-yl)methyl)isoindoline-1,3-dione] | B (80%< substrate protein remaining % ≤100%) | B (80%< substrate protein remaining % ≤100%) | A (0% ≤ substrate protein remaining % ≤80%) | B (80%< substrate protein remaining % ≤100%) | B (80%< substrate protein remaining % ≤100%) | A (0% ≤ substrate protein remaining % ≤80%)
3 | O=C1CCN(N2C(=O)c3ccc(CN4CCN(c5ccc(Br)cc5)CC4)cc3C2=O)C(=O)N1 [GT-06784, 5-((4-(4-bromophenyl)piperazin-1-yl)methyl)-2-(2,4-dioxotetrahydropyrimidin-1(2H)-yl)isoindoline-1,3-dione] | B (80%< substrate protein remaining % ≤100%) | A (0% ≤ substrate protein remaining % ≤80%) | B (80%< substrate protein remaining % ≤100%) | B (80%< substrate protein remaining % ≤100%) | B (80%< substrate protein remaining % ≤100%) | B (80%< substrate protein remaining % ≤100%)
4 | O=C1CCN(N2C(=O)c3ccc(CN4CCC(n5cnc6cc(F)ccc65)CC4)cc3C2=O)C(=O)N1 [GT-07529, 2-(2,4-dioxotetrahydropyrimidin-1(2H)-yl)-5-((4-(5-fluoro-1H-benzo[d]imidazol-1-yl)piperidin-1-yl)methyl)isoindoline-1,3-dione] | B (80%< substrate protein remaining % ≤100%) | A (0% ≤ substrate protein remaining % ≤80%) | B (80%< substrate protein remaining % ≤100%) | B (80%< substrate protein remaining % ≤100%) | A (0% ≤ substrate protein remaining % ≤80%) | B (80%< substrate protein remaining % ≤100%)
5 | O=C1CCN(N2Cc3cc(CN4CCC(c5ncc6ccsc6n5)CC4)ccc3C2=O)C(=O)N1 [GT-08115, 1-(1-oxo-5-((4-(thieno[2,3-d]pyrimidin-2-yl)piperidin-1-yl)methyl)isoindolin-2-yl)dihydropyrimidine-2,4(1H,3H)-dione] | B (80%< substrate protein remaining % ≤100%) | A (0% ≤ substrate protein remaining % ≤80%) | B (80%< substrate protein remaining % ≤100%) | B (80%< substrate protein remaining % ≤100%) | A (0% ≤ substrate protein remaining % ≤80%) | B (80%< substrate protein remaining % ≤100%)
6 | O=C1CCN(N2Cc3cc(CN4CCN(c5nc(Cl)nc6ccsc56)CC4)ccc3C2=O)C(=O)N1 [GT-08444, 1-(5-((4-(2-chlorothieno[3,2-d]pyrimidin-4-yl)piperazin-1-yl)methyl)-1-oxoisoindolin-2-yl)dihydropyrimidine-2,4(1H,3H)-dione] | B (80%< substrate protein remaining % ≤100%) | B (80%< substrate protein remaining % ≤100%) | B (80%< substrate protein remaining % ≤100%) | B (80%< substrate protein remaining % ≤100%) | B (80%< substrate protein remaining % ≤100%) | A (0% ≤ substrate protein remaining % ≤80%)
7 | O=C1CCN(N2C(=O)c3ccc(CN4CC5CCC4CN5C(c4ccccc4)c4ccccc4)cc3C2=O)C(=O)N1 (stereo not shown) [GT-06451, 5-((5-benzhydryl-2,5-diazabicyclo[2.2.2]octan-2-yl)methyl)-2-(2,4-dioxotetrahydropyrimidin-1(2H)-yl)isoindoline-1,3-dione] | B (80%< substrate protein remaining % ≤100%) | B (80%< substrate protein remaining % ≤100%) | B (80%< substrate protein remaining % ≤100%) | B (80%< substrate protein remaining % ≤100%) | B (80%< substrate protein remaining % ≤100%) | A (0% ≤ substrate protein remaining % ≤80%)
8 | O=C1CCN(N2C(=O)c3ccc(CN4CCN(c5ccccc5Cl)CC4)cc3C2=O)C(=O)N1 [GT-06726, 5-((4-(2-chlorophenyl)piperazin-1-yl)methyl)-2-(2,4-dioxotetrahydropyrimidin-1(2H)-yl)isoindoline-1,3-dione] | B (80%< substrate protein remaining % ≤100%) | A (0% ≤ substrate protein remaining % ≤80%) | A (0% ≤ substrate protein remaining % ≤80%) | A (0% ≤ substrate protein remaining % ≤80%) | B (80%< substrate protein remaining % ≤100%) | A (0% ≤ substrate protein remaining % ≤80%)
9 | Cc1nc(C2CCN(Cc3ccc4c(c3)C(=O)N(N3CCC(=O)NC3=O)C4=O)CC2)c2ccsc2n1 [GT-05272, 2-(2,4-dioxotetrahydropyrimidin-1(2H)-yl)-5-((4-(2-methylthieno[2,3-d]pyrimidin-4-yl)piperidin-1-yl)methyl)isoindoline-1,3-dione] | B (80%< substrate protein remaining % ≤100%) | B (80%< substrate protein remaining % ≤100%) | A (0% ≤ substrate protein remaining % ≤80%) | B (80%< substrate protein remaining % ≤100%) | B (80%< substrate protein remaining % ≤100%) | B (80%< substrate protein remaining % ≤100%)
10 | Cc1nc(N2CCN(Cc3ccc4c(c3)C(=O)N(N3CCC(=O)NC3=O)C4=O)CC2)c2c(-c3ccccc3)csc2n1 [GT-08099, 2-(2,4-dioxotetrahydropyrimidin-1(2H)-yl)-5-((4-(2-methyl-5-phenylthieno[2,3-d]pyrimidin-4-yl)piperazin-1-yl)methyl)isoindoline-1,3-dione] | B (80%< substrate protein remaining % ≤100%) | B (80%< substrate protein remaining % ≤100%) | B (80%< substrate protein remaining % ≤100%) | B (80%< substrate protein remaining % ≤100%) | A (0% ≤ substrate protein remaining % ≤80%) | B (80%< substrate protein remaining % ≤100%)
11 | O=C1CCN(N2Cc3cc(CN4CCN(c5cccc(C(F)(F)F)n5)CC4)ccc3C2=O)C(=O)N1 [GT-05175, 1-(1-oxo-5-((4-(6-(trifluoromethyl)pyridin-2-yl)piperazin-1-yl)methyl)isoindolin-2-yl)dihydropyrimidine-2,4(1H,3H)-dione] | B (80%< substrate protein remaining % ≤100%) |  | B (80%< substrate protein remaining % ≤100%) |  | A (0% ≤ substrate protein remaining % ≤80%) | A (0% ≤ substrate protein remaining % ≤80%)
